The text below walks through data of patent publication US7666909B2, “Enhancement of alcohol metabolism” (priority 2005, dated 2010).

For data set [1] the following is noted: oral administration during alcohol drinking (Tabakoff et al. 1989); cited from earlier work.
A further data set deals with mouse. The following applies: cited from earlier work.
The next data set deals with ALDH. Kind of data set: Formation of acetic acid from AcA by ALDH/NADH in the presence of D-GLAC (Reaction 6), gas chromatography. The settings on record: 3 mmol D-GLAC, 0.3 mmol AcA, 5 units ALDH, NADH, phosphate buffer pH 6.865, stirred 6 hours; GC analysis. It is filed as biochemical.
Data set [2] can be described thus: Effect of D-glyceric acid on blood alcohol level in rats after intraperitoneal alcohol. Format: in vivo, rat. The settings on record: on average, both fasted and nonfasted rats; versus same alcohol dose without D-GLAC. The method, then:
40 animals were fasted for 12 hours before the experiment, and 40 were fed normally. In the experiment, each rat received intraperitoneally an intoxicating single dose of alcohol (1.2 g/kg, 10% w/v) in physiological saline. […] The blood samples were then analysed by headspace gas chromatography.

For data set [3] the following is noted: large doses (1-5 g/kg) taken together with the alcohol (Crownover et al. 1986); cited from earlier work.

For `CSCC[C@H](N)C(=O)O` [methionine], the “Reduction in blood AcA concentrations” value in data set [1] was 20%. With `CC=O` [AcA, acetaldehyde], in the data set on mouse (acute toxicity), the LD100 is 750 mg/kg. In the case of `O=C(O)C(O)CO` [D-GLAC, D-glyceric acid], in the data set on ALDH, the “Formation of acetic acid from AcA” value was “acetic acid had been formed”. The “Lower blood alcohol concentration than the corresponding control group” value in data set [2] was found to be 20%. Consider `CCO` [alcohol, ethyl alcohol], for which, in the data set on mouse (in vivo), the LD70 was 6500 mg/kg.

Consider `O=C(CO)[C@@H](O)[C@H](O)[C@H](O)CO` [fructose], for which the “Enhancement of alcohol elimination rate” value in data set [3] is on record as “up to 20%”.
